Results as given in patent US20260159497A1, “SOLID FORMS OF A COMPLEMENT FACTOR B INHIBITOR” (Novartis Pharma AG, priority 2022, published 2026).
Like-named read-outs stand apart in the source and are kept apart here.

Assays:
[1] = Dynamic vapor sorption (DVS) mass change; assay type: physicochemical; settings: 95% RH at 25° C.
Description: [table] The mass change by DVS isotherm (2 cycles 40-0-95-0-40% RH) are in the tables below. The mass change is based on the dry weight of each.

[2] = Solubility in Simulated Fluids at 37° C.; assay type: physicochemical; settings: for solubility at 24 h / solubility at 30 min: 37 °C, thermodynamic from solid; for solubility at 24 h: read-out: Solubility (mg/mL) 24 h; for solubility at 30 min: read-out: Solubility (mg/mL) 30 min
Description: Solubility data of Form A (S)-4-(2,2-difluoro-7-((5-methoxy-7-methyl-1H-indol-4-yl)methyl)-7-azaspiro[3.5]nonan-6-yl)benzoic acid, Form B (S)-4-(2,2-difluoro-7-((5-methoxy-7-methyl-1H-indol-4-yl)methyl)-7-azaspiro[3.5]nonan-6-yl)benzoic acid p-toluene sulfonic acid salt, Form C (S)-4-(2,2-difluoro-7-((5-methoxy-7-methyl-1H-indol-4-yl)methyl)-7-azaspiro[3.5]nonan-6-yl)benzoic acid p-toluene sulfonic acid salt, and Form D (S)-4-(2,2-difluoro-7-((5-methoxy-7-methyl-1H-indol-4-yl)methyl)-7-azaspiro[3.5]nonan-6-yl)benzoic acid hydrochloride salt in Simulated Fluids at 37° C.

[3] = Pharmacokinetic study after oral dosing, rat; assay type: in vivo, SD Rat; settings: male, SD (Sprague-Dawley), rat, in vivo, po, solution in 20% kleptose in water, SD Rat male, Fed, 10 mL/kg; for AUC(0-t) / concentration at 24 h: oral; for AUC(0-t): read-out: AUC0-24 h; for concentration at 24 h: read-out: C24 h
Description: (§1) The pharmacokinetic profile of (S)-4-(2,2-difluoro-7-((5-methoxy-7-methyl-1H-indol-4-yl)methyl)-7-azaspiro[3.5]nonan-6-yl)benzoic acid was assessed in rats, dogs or non-human primates (NHPs) as the amorphous compound as a solution in 20% kleptose in water and as a suspension of Form A in 0.5% methocel+0.1% tween 80 in water.
(§2) Amorphous (S)-4-(2,2-difluoro-7-((5-methoxy-7-methyl-1H-indol-4-yl)methyl)-7-azaspiro[3.5]nonan-6-yl)benzoic acid was weighed into a glass vial with a magnetic stir bar to give formulations at dose concentrations of 0.1-1000 mg/kg. Approx. ⅓ the final volume of 20% kleptose (hydroxypropyl β-cyclodextrin, Aldrich, CAS #128446-35-5) in water was added to the vial (to afford either a 5 mL/kg or 10 mL/kg dose volume, depending on the species). The mixture was basified to a pH of 8.5 to 10 using dropwise addition of 2-5 M aqueous NaOH solution, with pH monitoring. The suspension was stirred, vortexed, and sonicated for 15-20 minutes to afford a homogenous mixture. The second ⅓ of the final volume of 20% kleptose was added to the vial and further stirred, vortexed, and sonicated for 15-20 minutes to afford a homogenous mixture. The pH was monitored and further pH adjustment to pH 8.5 to 10, if necessary, can be applied. The final ⅓ the final volume of 20% kleptose was added to the vial and further stirred, vortexed, and sonicated for 15-20 minutes to afford a homogenous solution. The pH of the solution was adjusted to a pH of 7.5 to 8.0 with dropwise addition of 1.0 M aqueous HCl solution with gentle stirring. The formulation should remain in solution.
Form A crystalline (S)-4-(2,2-difluoro-7-((5-methoxy-7-methyl-1H-indol-4-yl)methyl)-7-azaspiro[3.5]nonan-6-yl)benzoic acid was weighed into a glass vial with a magnetic stir bar to give formulations at dose concentrations of 0.1-1000 mg/kg. The crystalline material should preferably have a particle size with a D50 below 50 μm, and ideally with a D50 below 5 μm. The desired volume of 0.5% methocel (viscosity 400 cP, Aldrich, CAS #9004-67-5)/0.1% tween-80 (Aldrich, CAS #9005-65-6) was added (to afford a 5 mL/kg dose volume). The contents of the vial were stirred at 400-500 rpm on a stir-plate. Gentle vortex or bath sonication can be applied to break down any large clumps. The vial should be mixed well to ensure homogeneity right before animal dosing.

[4] = Pharmacokinetic study after oral dosing, dog; settings: in vivo, solution in 20% kleptose in water, Dog beagle male, Fasted, 5 mL/kg; for AUC(0-t): read-out: AUC0-24 h; for concentration at 24 h: read-out: C24 h
Description: as §1, §2

[5] = Pharmacokinetic study after oral dosing, non-human primate; settings: cynomolgus monkey, in vivo, solution in 20% kleptose in water, Cyno male, 30 mg/kg, Fed, 5 mL/kg
Description: as §1, §2

[6] = after 12 weeks of treatment; cited from earlier work
[7] = fassgf or other biorelevant, FaSSGF, 24 h

## COc1cc(C)c2[nH]ccc2c1CN1CCC2(C[C@H]1c1ccc(C(=O)O)cc1)CC(F)(F)C2.Cc1ccc(S(=O)(=O)O)cc1 [Form C, (S)-4-(2,2-difluoro-7-((5-methoxy-7-methyl-1H-indol-4-yl)methyl)-7-azaspiro[3.5]nonan-6-yl)benzoic acid p-toluene sulfonic acid salt]
[1]
  moisture absorbed by DVS (absorbs up to): up to 0.4%
[2]; [7]
  solubility at 24 h: 0.85 mg/mL
[2]; FaSSGF
  pH at 24 h: 1.56
[2]; FaSSGF, 30 min
  Solubility (mg/mL) 30 min: 0.87 mg/mL
[2]; FaSSIF
  pH at 24 h: 6.25
[2]; FaSSIF, 30 min
  Solubility (mg/mL) 30 min: 1.68 mg/mL
[2]; FaSSIF, 24 h
  Solubility (mg/mL) 24 h: 0.13 mg/mL
[2]; FeSSIF
  pH at 24 h: 4.97
[2]; FeSSIF, 30 min
  Solubility (mg/mL) 30 min: 1.63 mg/mL
[2]; FeSSIF, 24 h
  Solubility (mg/mL) 24 h: 1.69 mg/mL
[2]; Water, initial pH 7.00
  pH at 24 h: 3.37
[2]; Water, initial pH 7.00, 30 min
  Solubility (mg/mL) 30 min: 0.88 mg/mL
[2]; Water, initial pH 7.00, 24 h
  Solubility (mg/mL) 24 h: 1.12 mg/mL

## COc1cc(C)c2[nH]ccc2c1CN1CCC2(C[C@H]1c1ccc(C(=O)O)cc1)CC(F)(F)C2 [(S)-4-(2,2-difluoro-7-((5-methoxy-7-methyl-1H-indol-4-yl)methyl)-7-azaspiro[3.5]nonan-6-yl)benzoic acid]
[3]; 2 mg/kg, 2 mg/kg
  AUC(0-t): 20.5 µM·h
  concentration at 24 h: 0.21 µM
[3]; 2 mg/kg
  Cmax: 2.42 µM
[3]; 300 mg/kg, 300 mg/kg
  AUC(0-t): 1110 µM·h
  concentration at 24 h: 18 µM
[3]; 300 mg/kg
  Cmax: 94 µM
[4]; 2 mg/kg
  Cmax: 3.64 µM
  AUC(0-t): 54.3 µM·h
  concentration at 24 h: 1.73 µM
[4]; 100 mg/kg
  Cmax: 139 µM
  AUC(0-t): 1320 µM·h
  concentration at 24 h: 18.8 µM
[5]
  Cmax: 8.6 µM
[5]; read-out: AUC0-24 h
  AUC(0-t): 96.1 µM·h
[5]; read-out: C24 h
  concentration at 24 h: 1.75 µM

## CCO[C@H]1CCN(Cc2c(OC)cc(C)c3[nH]ccc23)[C@H](c2ccc(C(=O)O)cc2)C1 [iptacopan]
[6]
  efficacy in Phase II clinical trial in C3G: reduced proteinuria

## COc1cc(C)c2[nH]ccc2c1CN1CCC2(C[C@H]1c1ccc(C(=O)O)cc1)CC(F)(F)C2.Cl [Form D, (S)-4-(2,2-difluoro-7-((5-methoxy-7-methyl-1H-indol-4-yl)methyl)-7-azaspiro[3.5]nonan-6-yl)benzoic acid hydrochloride salt]
[2]; fassgf or other biorelevant, FaSSGF, 30 min
  solubility at 30 min: 2.25 mg/mL
[2]; [7]
  solubility at 24 h: > 2 mg/mL
[2]; fassif, FaSSIF, 30 min
  solubility at 30 min: 2.19 mg/mL
[2]; fassif, FaSSIF, 24 h
  solubility at 24 h: > 2 mg/mL
[2]; fessif, FeSSIF, 30 min
  solubility at 30 min: 2.19 mg/mL
[2]; fessif, FeSSIF, 24 h
  solubility at 24 h: 2.33 mg/mL
[2]; pH 7, water, Water, initial pH 7.00, 30 min
  solubility at 30 min: 2.08 mg/mL
[2]; pH 7, water, Water, initial pH 7.00, 24 h
  solubility at 24 h: > 2 mg/mL
[2]; FaSSGF
  pH at 24 h: 1.57
[2]; FaSSIF
  pH at 24 h: 6.17
[2]; FeSSIF
  pH at 24 h: 4.95
[2]; Water, initial pH 7.00
  pH at 24 h: 3.13
